PubChem BioAssay (NCI)
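Cultured in 96-well plates, cells were exposed to test compound for 48 hours across five concentrations. TGI denotes the concentration required for complete inhibition of growth.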

Tests used:
Assay in all cases: NCI tumour cell line growth inhibition, 48 h
[1] = system: SNB-75 CNS
[2] = system: SW-620 colon
[3] = system: NCI-H460 lung
[4] = system: OVCAR-3 ovarian
[5] = system: 786-0 renal
[6] = system: EKVX NSCLC
[7] = system: UACC-62 melanoma
[8] = system: SN12C renal
[9] = system: HOP-62 NSCLC
[10] = system: MDA-N
[11] = system: SK-OV-3 ovarian
[12] = system: NCI-H522 lung
[13] = system: BT-549 breast
[14] = system: CAKI-1 renal
[15] = system: OVCAR-8 ovarian
[16] = system: NCI/ADR-RES ovarian
[17] = system: K-562 leukemia
[18] = system: A549 NSCLC
[19] = system: MCF7 breast
[20] = system: M14 melanoma
[21] = system: UACC-257 melanoma
[22] = system: SF-295 CNS
[23] = system: UO-31 renal
[24] = system: SR leukemia
[25] = system: HCC-2998 colon
[26] = system: SF-539 CNS
[27] = system: MALME-3M melanoma
[28] = system: HS 578T breast
[29] = system: T-47D breast
[30] = system: HCT-116 colon
[31] = system: RXF 393 renal
[32] = system: MDA-MB-231 breast
[33] = system: SNB-19 CNS
[34] = system: ACHN renal
[35] = system: NCI-H23 lung
[36] = system: NCI-H226 lung
[37] = system: COLO 205 colon
[38] = system: PC-3 prostate
[39] = system: OVCAR-4 ovarian
[40] = system: OVCAR-5 ovarian
[41] = system: SK-MEL-5 melanoma
[42] = system: CCRF-CEM leukemia
[43] = system: MOLT-4 leukemia
[44] = system: U251 CNS
[45] = system: HCT-15 colon
[46] = system: IGROV1 ovarian
[47] = system: LOX IMVI melanoma
[48] = system: TK-10 renal
[49] = system: SF-268 CNS
[50] = system: HT29 colon
[51] = system: MDA-MB-435
[52] = system: SK-MEL-28 melanoma
[53] = system: HOP-92 NSCLC
[54] = system: HL-60(TB) leukemia
[55] = system: A498 renal
[56] = system: DU-145 prostate
[57] = system: SK-MEL-2 melanoma
[58] = system: KM12 colon
[59] = system: RPMI-8226 leukemia

SMILES: CN(/N=C/C=N/N(C)C1=NCCCCN1)C1=NCCCCN1
- TGI [1]: > 100 µM
- TGI [2]: > 100 µM
- TGI [3]: > 100 µM
- TGI [4]: > 100 µM
- TGI [5]: > 100 µM
- TGI [6]: > 100 µM
- TGI [7]: > 100 µM
- TGI [8]: > 100 µM
- TGI [9]: > 100 µM
- TGI [10]: > 100 µM
- TGI [11]: > 100 µM
- TGI [12]: > 100 µM
- TGI [13]: > 100 µM
- TGI [14]: > 100 µM
- TGI [15]: > 100 µM
- TGI [16]: > 100 µM
- TGI [17]: > 100 µM
- TGI [18]: > 100 µM
- TGI [19]: > 100 µM
- TGI [20]: > 100 µM
- TGI [21]: > 100 µM
- TGI [22]: > 100 µM
- TGI [23]: > 100 µM
- TGI [24]: > 100 µM
- TGI [25]: > 100 µM
- TGI [26]: > 100 µM
- TGI [27]: > 100 µM
- TGI [28]: > 100 µM
- TGI [29]: > 100 µM
- TGI [30]: > 100 µM
- TGI [31]: > 100 µM
- TGI [32]: > 100 µM
- TGI [33]: > 100 µM
- TGI [34]: > 100 µM
- TGI [35]: > 100 µM
- TGI [36]: > 100 µM
- TGI [37]: > 100 µM
- TGI [38]: > 100 µM
- TGI [39]: > 100 µM
- TGI [40]: > 100 µM
- TGI [41]: > 100 µM
- TGI [42]: > 100 µM
- TGI [43]: > 100 µM
- TGI [44]: > 100 µM
- TGI [45]: > 100 µM
- TGI [46]: > 100 µM
- TGI [47]: > 100 µM
- TGI [48]: > 100 µM
- TGI [49]: > 100 µM
- TGI [50]: > 100 µM
- TGI [51]: > 100 µM
- TGI [52]: > 100 µM

SMILES: CN(C)c1ccc(/C=C(\NC(=O)c2ccccc2)C(=O)NC(CCC(=O)O)C(=O)O)cc1 (stereo not given)
- TGI [1]: > 100 µM
- TGI [2]: > 100 µM
- TGI [3]: > 100 µM
- TGI [4]: > 100 µM
- TGI [5]: > 100 µM
- TGI [6]: > 100 µM
- TGI [7]: > 100 µM
- TGI [8]: > 100 µM
- TGI [9]: > 100 µM
- TGI [10]: > 100 µM
- TGI [53]: > 100 µM
- TGI [11]: > 100 µM
- TGI [12]: > 100 µM
- TGI [13]: > 100 µM
- TGI [14]: > 100 µM
- TGI [15]: > 100 µM
- TGI [16]: > 100 µM
- TGI [17]: > 100 µM
- TGI [18]: > 100 µM
- TGI [19]: > 100 µM
- TGI [20]: > 100 µM
- TGI [21]: > 100 µM
- TGI [22]: > 100 µM
- TGI [23]: > 100 µM
- TGI [54]: > 100 µM
- TGI [25]: > 100 µM
- TGI [26]: > 100 µM
- TGI [27]: > 100 µM
- TGI [28]: > 100 µM
- TGI [29]: > 100 µM
- TGI [30]: > 100 µM
- TGI [31]: > 100 µM
- TGI [32]: > 100 µM
- TGI [33]: > 100 µM
- TGI [34]: > 100 µM
- TGI [35]: > 100 µM
- TGI [36]: > 100 µM
- TGI [37]: > 100 µM
- TGI [55]: > 100 µM
- TGI [56]: > 100 µM
- TGI [38]: > 100 µM
- TGI [39]: > 100 µM
- TGI [40]: > 100 µM
- TGI [41]: > 100 µM
- TGI [42]: > 100 µM
- TGI [43]: > 100 µM
- TGI [44]: > 100 µM
- TGI [45]: > 100 µM
- TGI [57]: > 100 µM
- TGI [58]: > 100 µM
- TGI [46]: > 100 µM
- TGI [47]: > 100 µM
- TGI [48]: > 100 µM
- TGI [49]: > 100 µM
- TGI [50]: > 100 µM
- TGI [51]: > 100 µM
- TGI [52]: > 100 µM
- TGI [59]: > 100 µM

SMILES: O=C(c1cccnc1)N1N=C(c2ccc(Cl)cc2)CC1(O)c1cc(F)c(Cl)cc1Cl (stereo not given)
- TGI [1]: 37.3 µM
- TGI [2]: > 100 µM
- TGI [3]: > 100 µM
- TGI [4]: 26.9 µM
- TGI [5]: 53.8 µM
- TGI [6]: 76.5 µM
- TGI [8]: 37.5 µM
- TGI [9]: 91.3 µM
- TGI [10]: > 100 µM
- TGI [53]: 59.8 µM
- TGI [11]: > 100 µM
- TGI [12]: 92.1 µM
- TGI [13]: 69.1 µM
- TGI [14]: > 100 µM
- TGI [15]: > 100 µM
- TGI [16]: > 100 µM
- TGI [17]: > 100 µM
- TGI [18]: > 100 µM
- TGI [20]: 91.9 µM
- TGI [21]: 63.7 µM
- TGI [22]: 56.1 µM
- TGI [23]: > 100 µM
- TGI [24]: > 100 µM
- TGI [54]: 47.9 µM
- TGI [26]: 28.1 µM
- TGI [27]: > 100 µM
- TGI [28]: > 100 µM
- TGI [29]: 20.7 µM
- TGI [30]: 52.8 µM
- TGI [31]: 26.7 µM
- TGI [32]: 38.9 µM
- TGI [33]: > 100 µM
- TGI [34]: 53.8 µM
- TGI [35]: > 100 µM
- TGI [36]: 43.3 µM
- TGI [37]: 28.7 µM
- TGI [56]: > 100 µM
- TGI [38]: 43.4 µM
- TGI [39]: > 100 µM
- TGI [40]: > 100 µM
- TGI [41]: 24.2 µM
- TGI [42]: > 100 µM
- TGI [43]: > 100 µM
- TGI [44]: 34.3 µM
- TGI [45]: > 100 µM
- TGI [57]: 75.2 µM
- TGI [58]: > 100 µM
- TGI [46]: 82.1 µM
- TGI [47]: 31.2 µM
- TGI [48]: > 100 µM
- TGI [49]: 75 µM
- TGI [50]: 75.8 µM
- TGI [51]: > 100 µM
- TGI [52]: 91.7 µM
- TGI [59]: 47.6 µM
